In PubChem BioAssay AID248 (DTP/NCI, 2004):
“And” between values parts separate entries of the source, which are not always exact repeats. Identical values can stand only once. Inconclusive results and toxic doses are left out. Rule as the data show it: active = T/C of 150% or more; inactive = T/C below 125%.

Tested on: L1210 leukemia ip in BDF1 mice, survival T/C
Experiment: NCI In Vivo Anticancer Drug Screen. Data for tumor model L1210 Leukemia (intraperitoneal) in B6D2F1 (BDF1) mice
Details: endpoint: mean survival time, higher = longer survival
In short: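 Tumor cells were implanted, animals were treated, and survival was followed. The result divides the treated measurement by the vehicle-control measurement.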

[1] = dose: 100.0 mg/kg/injection, schedule: Q01DX009 (ip), vehicle: Klucel (hydroxypropylcellulose) (HPC)
[2] = dose: 200.0 mg/kg/injection, schedule: Q01DX009 (ip), vehicle: Klucel (hydroxypropylcellulose) (HPC)
[3] = dose: 400.0 mg/kg/injection, schedule: Q01DX009 (ip), vehicle: Klucel (hydroxypropylcellulose) (HPC)
[4] = dose: 75.0 mg/kg/injection, schedule: Q01DX001 (ip), vehicle: other
[5] = dose: 150.0 mg/kg/injection, schedule: Q01DX001 (ip), vehicle: other
[6] = dose: 100.0 mg/kg/injection, schedule: Q01DX001 (ip), vehicle: saline
[7] = dose: 200.0 mg/kg/injection, schedule: Q01DX001 (ip), vehicle: saline
[8] = dose: 400.0 mg/kg/injection, schedule: Q01DX001 (ip), vehicle: saline
[9] = dose: 100.0 mg/kg/injection, schedule: Q01DX009 (ip), vehicle: saline with Tween-80
[10] = dose: 200.0 mg/kg/injection, schedule: Q01DX009 (ip), vehicle: saline with Tween-80
[11] = dose: 400.0 mg/kg/injection, schedule: Q01DX009 (ip), vehicle: saline with Tween-80
[12] = dose: 100.0 mg/kg/injection, schedule: Q04DX002 (ip), vehicle: Klucel (hydroxypropylcellulose) (HPC)
[13] = dose: 200.0 mg/kg/injection, schedule: Q04DX002 (ip), vehicle: Klucel (hydroxypropylcellulose) (HPC)
[14] = dose: 400.0 mg/kg/injection, schedule: Q04DX002 (ip), vehicle: Klucel (hydroxypropylcellulose) (HPC)
[15] = dose: 100.0 mg/kg/injection, schedule: Q01DX001 (ip), vehicle: Klucel (hydroxypropylcellulose) (HPC)
[16] = dose: 200.0 mg/kg/injection, schedule: Q01DX001 (ip), vehicle: Klucel (hydroxypropylcellulose) (HPC)
[17] = dose: 400.0 mg/kg/injection, schedule: Q01DX001 (ip), vehicle: Klucel (hydroxypropylcellulose) (HPC)
[18] = dose: 100.0 mg/kg/injection, schedule: Q01DX001 (ip), vehicle: carboxymethylcellulose (CMC)
[19] = dose: 200.0 mg/kg/injection, schedule: Q01DX001 (ip), vehicle: carboxymethylcellulose (CMC)
[20] = dose: 400.0 mg/kg/injection, schedule: Q01DX001 (ip), vehicle: carboxymethylcellulose (CMC)

Measured: T/C

CC(C)C(O)c1cnc(OCc2ccccc2)nc1OCc1ccccc1 (configuration not stated)
inactive: [1] 96 % of control | dose: 100.0 mg/kg/injection, schedule: Q04DX003 (ip), vehicle: other 98 % of control | [2] 101 % of control | dose: 200.0 mg/kg/injection, schedule: Q04DX003 (ip), vehicle: other 103 % of control | [3] 101 % of control | dose: 400.0 mg/kg/injection, schedule: Q04DX003 (ip), vehicle: other 103 % of control

N#CCCN(C(=S)Nc1ccc(Cl)c(Cl)c1)C1CCCCC1
inactive: [1] 107 % of control | [2] 113 % of control | [3] 103 % of control

C/C=C/CC1(CCC(C)C)C(=O)NC(=O)NC1=O
inactive: dose: 75.0 mg/kg/injection, schedule: Q01DX001 (ip), vehicle: acetone 95 % of control | [4] 101 % of control | dose: 150.0 mg/kg/injection, schedule: Q01DX001 (ip), vehicle: acetone 101 % of control | [5] 101 % of control | dose: 300.0 mg/kg/injection, schedule: Q01DX001 (ip), vehicle: other 105 % of control

CCCCn1cnc2c(=O)n(C)c(=O)n(C)c21
inactive: [6] 96 % of control | [7] 94 % of control

COC1OC(CN2CC2)C2OC(C)(C)OC12 (configuration not stated)
inactive: dose: 75.0 mg/kg/injection, schedule: Q01DX001 (ip), vehicle: carboxymethylcellulose (CMC) 102 % of control

O=C(Nc1ccc([N+](=O)[O-])cc1)N1CCCCC1
inactive: [6] 95 % of control | [7] 95 % of control | [8] 97 % of control

CC(=O)NC1CCC(S(=O)(=O)N2N=NC3CCCCC32)CC1 (configuration not stated)
inactive: [9] 98 % of control | [10] 93 % of control | [11] 92 % of control

CCOC1OC(c2ccccc2)=NS(=O)(=O)C1(C)C (configuration not stated)
inactive: [12] 103 % of control | [13] 106 % of control | [14] 103 % of control

CCOc1ccn(C2OC(COC(C)=O)C(OC3OC(COC(C)=O)C(OC(C)=O)C(OC(C)=O)C3OC(C)=O)C(OC(C)=O)C2OC(C)=O)c(=O)n1 (configuration not stated)
inactive: dose: 22.5 mg/kg/injection, schedule: Q01DX001 (ip), vehicle: carboxymethylcellulose (CMC) 120 % of control | dose: 45.0 mg/kg/injection, schedule: Q01DX001 (ip), vehicle: carboxymethylcellulose (CMC) 103 % of control | dose: 90.0 mg/kg/injection, schedule: Q01DX001 (ip), vehicle: carboxymethylcellulose (CMC) 100 % of control | dose: 180.0 mg/kg/injection, schedule: Q01DX001 (ip), vehicle: carboxymethylcellulose (CMC) 100 % of control

C=C1N(C)c2ccc(Cl)cc2C1(C)C
inactive: dose: 50.0 mg/kg/injection, schedule: Q01DX009 (ip), vehicle: saline with Tween-80 102 % of control | [9] 98 % of control | dose: 100.0 mg/kg/injection, schedule: Q04DX003 (ip), vehicle: saline with Tween-80 94 % of control | dose: 200.0 mg/kg/injection, schedule: Q04DX003 (ip), vehicle: saline with Tween-80 96 % of control

COc1ccc([N+](=O)[O-])cc1N
inactive: dose: 100.0 mg/kg/injection, schedule: Q04DX003 (ip), vehicle: Klucel (hydroxypropylcellulose) (HPC) 101 % of control | dose: 200.0 mg/kg/injection, schedule: Q04DX003 (ip), vehicle: Klucel (hydroxypropylcellulose) (HPC) 104 % of control | dose: 400.0 mg/kg/injection, schedule: Q04DX003 (ip), vehicle: Klucel (hydroxypropylcellulose) (HPC) 90 % of control

O=C1C=CC(=Nc2ccc(O)c3ncccc23)c2cccnc21
inactive: dose: 100.0 mg/kg/injection, schedule: Q01DX001 (ip), vehicle: other 104 % of control and 114 % of control | dose: 200.0 mg/kg/injection, schedule: Q01DX001 (ip), vehicle: other 106 % of control and 108 % of control | dose: 400.0 mg/kg/injection, schedule: Q01DX001 (ip), vehicle: other 102 % of control

CCOC(=O)C(=N\Nc1ccc(Cl)cc1Cl)/C(C)=N\NC(N)=S
inactive: dose: 75.0 mg/kg/injection, schedule: Q01DX001 (ip), vehicle: saline 95 % of control | dose: 300.0 mg/kg/injection, schedule: Q01DX001 (ip), vehicle: saline 104 % of control

O=C1OC(c2ccc(F)c3ccccc23)C2CCCCC12 (configuration not stated)
inactive: [15] 102 % of control | [16] 102 % of control | [17] 96 % of control

Cc1nc(=S)[nH][nH]1
inactive: [9] 102 % of control | dose: 100.0 mg/kg/injection, schedule: Q04DX002 (ip), vehicle: saline 103 % of control | [10] 122 % of control | dose: 200.0 mg/kg/injection, schedule: Q04DX002 (ip), vehicle: saline 94 % of control | [11] 96 % of control | dose: 400.0 mg/kg/injection, schedule: Q04DX002 (ip), vehicle: saline 87 % of control

Nc1nc2c(c(=O)[nH]1)N(CC(=O)O)C(CNc1ccc(C(=O)NC(CCC(=O)O)C(=O)O)cc1)CN2 (configuration not stated)
inactive: dose: 100.0 mg/kg/injection, schedule: Q01DX001 (ip), vehicle: alkali diluted with saline 94 % of control | dose: 200.0 mg/kg/injection, schedule: Q01DX001 (ip), vehicle: alkali diluted with saline 93 % of control | dose: 400.0 mg/kg/injection, schedule: Q01DX001 (ip), vehicle: alkali diluted with saline 96 % of control

CCCCn1cnc2c(SSc3ncnc4c3ncn4CCCC)ncnc21
inactive: dose: 37.5 mg/kg/injection, schedule: Q01DX Z (ip), vehicle: saline 109 % of control | dose: 150.0 mg/kg/injection, schedule: Q01DX Z (ip), vehicle: saline 124 % of control | dose: 166.0 mg/kg/injection, schedule: Q04DX003 (ip), vehicle: gum acacia 121 % of control

CN(C)c1ccc(C(=O)CCCN2CCC3(CC2)C(=O)NCN3c2ccccc2)cc1
inactive: [15] 100 % of control | [16] 94 % of control | [17] 100 % of control

Cc1ccc(NC(=O)Nc2ccc(CNC(=O)COc3ccc(Cl)cc3C(=O)O)cc2)cc1S(=O)(=O)F
inactive: [6] 100 % of control | [7] 94 % of control | [8] 94 % of control

COc1ccc(C(=O)CC2CCCC(CC(=O)c3ccc(OC)cc3)N2C)cc1 (configuration not stated)
inactive: [4] 98 % of control | [5] 90 % of control

O=C(Sc1ccccc1)C1OC1c1ccccc1 (configuration not stated)
inactive: dose: 100.0 mg/kg/injection, schedule: Q04DX003 (ip), vehicle: alcohol 98 % of control | dose: 200.0 mg/kg/injection, schedule: Q04DX003 (ip), vehicle: alcohol 92 % of control | dose: 400.0 mg/kg/injection, schedule: Q04DX003 (ip), vehicle: alcohol 86 % of control

Clc1ccc(/C=C\c2ccncc2)cc1
inactive: dose: 50.0 mg/kg/injection, schedule: Q01DX001 (ip), vehicle: carboxymethylcellulose (CMC) 102 % of control | [18] 98 % of control | [19] 119 % of control | [20] 98 % of control

NC(=O)NCN1C(=O)c2ccccc2C1=O
inactive: [12] 100 % of control | [13] 94 % of control | [14] 90 % of control

OCCNC(=S)Nc1cccc(C(F)(F)F)c1
inactive: [9] 100 % of control | dose: 100.0 mg/kg/injection, schedule: Q04DX002 (ip), vehicle: saline with Tween-80 91 % of control | [10] 97 % of control | dose: 200.0 mg/kg/injection, schedule: Q04DX002 (ip), vehicle: saline with Tween-80 98 % of control | dose: 400.0 mg/kg/injection, schedule: Q04DX002 (ip), vehicle: saline with Tween-80 112 % of control

CC(=O)Nc1c(Cl)c(Cl)c2c(c1Cl)C(=O)c1cc(Cl)ccc1-2
inactive: [18] 92 % of control | dose: 100.0 mg/kg/injection, schedule: Q01DX Z (ip), vehicle: carboxymethylcellulose (CMC) 102 % of control | [19] 90 % of control | dose: 200.0 mg/kg/injection, schedule: Q01DX Z (ip), vehicle: carboxymethylcellulose (CMC) 98 % of control | [20] 95 % of control | dose: 400.0 mg/kg/injection, schedule: Q01DX Z (ip), vehicle: carboxymethylcellulose (CMC) 98 % of control | dose: 800.0 mg/kg/injection, schedule: Q01DX Z (ip), vehicle: carboxymethylcellulose (CMC) 102 % of control
